Reference: patent publication US20150038707A1, “PROCESS FOR MAKING CGRP RECEPTOR ANTAGONISTS” (Merck Sharp & Dohme Corp., priority 2012, published 2015)

What was measured:
Assay type in all cases: in vivo
mosquitoes (Ae. aegypti) = test: Compound residual life: spatial repellency (Example 11); details: 12 week test period
Method: The four compounds of formula I described in Example 2 were tested for spatial repellency (directed movement away from the chemical source without the insect making physical contact with the treated surface) at low doses on female Aedes aegypti (Thailand strain) mosquitoes. The spatial repellency response was determined by use of the spatial repellency assay disclosed by Grieco et al. in “A New Classification System for the Actions of IRS Chemicals Traditionally Used for Malaria Control” in Plos One, Issue 8 (2007) (available at www.plosone.org) which is incorporated herein by reference for all relevant and consistent purposes. The assay used was a cylindrical assembly that included a treatment chamber at one end and a control chamber at the other end. The treatment chamber included a netting strip (nylon organdy) that was treated with the insecticide of interest at the relevant dose. The treatment chamber and control chamber were connected by a clear cylinder and were separated from the clear cylinder by butterfly valves. Twenty (20) mosquitoes were introduced into the clear central chamber and the butterfly valves were opened after 30 seconds. After 10 minutes, the valves were closed and the number of mosquitoes in each chamber was counted. […]

[1] = system: female Aedes aegypti (Thailand strain) mosquitoes; test: Spatial repellency assay on mosquitoes (Example 3); details: netting treated at 0.0025-2.5 nmol/cm^2
Method: (§1) The four compounds of formula I described in Example 2 were tested for spatial repellency (directed movement away from the chemical source without the insect making physical contact with the treated surface) at low doses on female Aedes aegypti (Thailand strain) mosquitoes. The spatial repellency response was determined by use of the spatial repellency assay disclosed by Grieco et al. in “A New Classification System for the Actions of IRS Chemicals Traditionally Used for Malaria Control” in Plos One, Issue 8 (2007) (available at www.plosone.org) which is incorporated herein by reference for all relevant and consistent purposes. The assay used was a cylindrical assembly that included a treatment chamber at one end and a control chamber at the other end. The treatment chamber included a netting strip (nylon organdy) that was treated with the insecticide of interest at the relevant dose. The treatment chamber and control chamber were connected by a clear cylinder and were separated from the clear cylinder by butterfly valves. Twenty (20) mosquitoes were introduced into the clear central chamber and the butterfly valves were opened after 30 seconds. After 10 minutes, the valves were closed and the number of mosquitoes in each chamber was counted.
The compositions were applied to the net strips by the same methods and at the same concentrations as described in Example 2 above. […]

Ae. aegypti mosquitoes = test: Compound residual life: spatial repellency (Example 9)
Method: as §1
The spatial repellency assay of Example 3 was used to determine the residual life of compound 1405 on Ae. aegypti mosquitoes. Compound 1405 (neat, suspended in acetone) was applied by pipette to the netting material and the netting material was maintained at room temperature. The assay was performed at 0, 24 and 48 hours.
Nets were treated and tested at times 0 hour, 24 hour and 48 hour. The nets were held at room temperature between tests. The spatial activity index (“SAI” which varies from −1 to 1 with zero (0) indicating no response) and spatial repellency (SR) were determined. SAI is the measure of the proportion of females in the control chamber over the treated chamber after correcting for the proportion of females in the control chamber.

[2] = Dose 2.5, Time 0 hr after net treatment
[3] = Dose 2.5, Time 24 hr after net treatment
[4] = Dose 25, Time 0 hr after net treatment
[5] = Dose 25, Time 24 hr after net treatment
[6] = Dose 25, Time 48 hr after net treatment

Compound	residual spatial repellent activity (in words) (mosquitoes (Ae. aegypti))	spatial repellency, dose compared with DDT (FIG. 2) [1]	SAI (SE) (spatial activity index, -1 to 1) (Ae. aegypti mosquitoes; [2])	SR (spatial repellency) (Ae. aegypti mosquitoes; [2])	SAI (SE) (spatial activity index, -1 to 1) (Ae. aegypti mosquitoes; [3])	SR (spatial repellency) (Ae. aegypti mosquitoes; [3])	SAI (SE) (spatial activity index, -1 to 1) (Ae. aegypti mosquitoes; [4])	SR (spatial repellency) (Ae. aegypti mosquitoes; [4])	SAI (SE) (spatial activity index, -1 to 1) (Ae. aegypti mosquitoes; [5])	SR (spatial repellency) (Ae. aegypti mosquitoes; [5])	SAI (SE) (spatial activity index, -1 to 1) (Ae. aegypti mosquitoes; [6])	SR (spatial repellency) (Ae. aegypti mosquitoes; [6])
CC1(C)C(C=C(Cl)Cl)C1C(=O)OCc1ccc(F)c(C(F)(F)F)c1F (stereo not drawn) [Compound 1406]	appeared to be the more residual of the two compounds tested											
CC1(C)C(C=C(Cl)C(F)(F)F)C1C(=O)OCc1ccc(F)c(C(F)(F)F)c1F (stereo not drawn) [Compound 1405]		showed repellency at a lower dose than DDT	0.5(0.1)	21.5	0.3(0.1)	18	0.3(0.1)	21.5	0.5(0.1)	22.5	0.4(0.1)	22.5
